This note sets out measurements from patent US6479531B1, “Gastrin and cholecystokinin receptor ligands” (James Black Foundation Limited, priority 1998, dated 2002).

The first test has as its target T1, gastrin receptor (Rattus norvegicus, UniProt P30553).
T1 construct: The stomach was excised and flushed with ca. 1 ml of unbuffered physiological saline solution; from tissue; host or cells: isolated whole stomach of immature rats (ca. 21 days old)
T1 sequence (P30553 1-452): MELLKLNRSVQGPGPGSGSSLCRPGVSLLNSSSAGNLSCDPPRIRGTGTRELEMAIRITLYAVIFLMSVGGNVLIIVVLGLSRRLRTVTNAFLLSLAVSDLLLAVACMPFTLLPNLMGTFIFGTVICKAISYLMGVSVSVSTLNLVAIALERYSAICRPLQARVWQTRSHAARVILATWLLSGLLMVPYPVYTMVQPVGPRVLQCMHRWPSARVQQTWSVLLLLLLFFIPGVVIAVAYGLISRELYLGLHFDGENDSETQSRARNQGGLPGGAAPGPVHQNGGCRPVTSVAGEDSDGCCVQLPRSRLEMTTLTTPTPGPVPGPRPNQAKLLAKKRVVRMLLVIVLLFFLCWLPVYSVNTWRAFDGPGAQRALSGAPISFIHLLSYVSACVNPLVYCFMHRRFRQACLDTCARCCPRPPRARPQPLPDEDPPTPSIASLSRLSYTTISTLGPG
Briefly: gastrin antagonist activity in immature rat stomach assay (pentagastrin dose-response, acid secretion). Particulars: isolated immature rat stomach, cumulative pentagastrin dose-response curves. How it is done:
The compounds of the examples were also tested for gastrin antagonist activity in an immature rat stomach assay. The procedure was as follows:
The oesophagus of immature rats (33-50 g, ca. 21 days old) was ligated at the level of the cardiac sphincter and the duodenal sphincter was cannulated. The stomach was excised and flushed with ca. 1 ml of unbuffered physiological saline solution. The fundus was punctured and cannulated. A further 4-5 ml of unbuffered solution was flushed through the stomach to ensure the preparation was not leaking. The stomach was lowered into a jacketed organ bath containing 40 ml of buffered solution containing 3×10^−8 M 5-methylfurmethide, maintained at 37° and gassed vigorously with 95% O2/5% CO2. The stomach was continuously perfused at a rate of 1 ml min^−1 with unbuffered solution gassed with 100% O2 with the perfusate passing over an internally referenced pH-electrode fixed 12 cm above the stomach.
After 120 min of stabilisation the drugs were added directly to the serosal solution in the organ bath and after a further 60 min cumulative pentagastrin dose-response curves were started. Changes in acid secretion were monitored and the curves analysed according to Black et al., Br. J. Pharmacol., 1985, 86, 581.
Regarding “(±)-3-{[5-(2-Adamantan-1-yl-ethyl)-2-[1-(2-methyl-propyl)-piperidin-2-yl])-1H-imidazole-4-carbonyl]-amino}-benzoic Acid [Example 140]”, the “Gastrin pKb” value worked out at 7.54. Still for that read-out and setting: the result for `O=C(O)c1cccc(NC(=O)c2nc([C@@H]3CC4C=C[C@@H]3C4)[nH]c2COC23CC4CC(CC(C4)C2)C3)c1` [Example 294, exo-3-([5-(Adamantan-1-yloxymethyl)-2-((1S,2R)-bicyclo[2.2.1]hept-5-en-2-yl)-1H-imidazole-4-carbonyl]-amino}-benzoic Acid] reads 8.43; that for `O=C(O)c1cccc(NC(=O)c2nc(C3CC4C=CC3C4)[nH]c2COC23CC4CC(CC(C4)C2)C3)c1` (racemic) [Example 234, (±)-endo-3-{[5-(Adamantan-1-yloxymethyl)-2-bicyclo[2.2.1]hept-5-en-2-yl-1H-imidazole-4-carbonyl]-amino}-benzoic Acid], 8.71. With `O=C(O)c1cccc(NC(=O)c2nc([C@H]3CC4C=C[C@H]3C4)[nH]c2COC23CC4CC(CC(C4)C2)C3)c1` [Example 295, exo-3-{[5-(Adamantan-1-yloxymethyl)-2-((1R,2S)-bicyclo[2.2.1]hept-5-en-2-yl)-1H-imidazole-4-carbonyl]-amino}-benzoic Acid], the “Gastrin pKb” value came out at 8.61. On to “5-{[5-(2-Adamantan-1-yl-ethyl)-2-[1-(2-methyl-propyl)-piperidin-2-yl])-1H-imidazole-4-carbonyl]-amino}-2-methyl-benzoic Acid [Example 142]”, for which the “Gastrin pKb” value is 6.75.

As for `O=C(Nc1cccc(CC(O)C(=O)O)c1)c1nc(C2CCCCC2)[nH]c1CCC12CC3CC(CC(C3)C1)C2` (racemic) [Example 260, (±)-(3-{[5-(2-Adamantan-1-yl-ethyl)-2-cyclohexyl-1H-imidazole-4-carbonyl]-amino}-phenyl)-2-hydroxy-propionic Acid], the “Gastrin pKb” value is given as 7.01.

Still in this test, the particulars now being: isolated immature rat stomach, cumulative pentagastrin dose-response curves, read-out: Gastrin pKb (converted).
For the molecule `O=C(O)c1cccc(NC(=O)c2nc(C3CCC=CCC3)[nH]c2COC23CC4CC(CC(C4)C2)C3)c1` [Example 230, 3-{[5-(Adamantan-1-yloxymethyl)-2-cyclohept-4-enyl-1H-imidazole-4-carbonyl]-amino}-benzoic Acid], the Kb is 6.17 nM. For the molecule `O=C(O)CC(=O)Nc1cccc(NC(=O)c2nc(C3CCCCC3)[nH]c2CCC23CC4CC(CC(C4)C2)C3)c1` [Example 267, N-(3-{[5-(2-Adamantan-1-yl-ethyl)-2-cyclohexyl-1H-imidazole-4-carbonyl]-amino}-phenyl)-malonamic Acid], the Kb was 112 nM. Turning to `O=C(O)c1cc(NC(=O)c2nc(C34CCC(CC3)CC4)[nH]c2CCC23CC4CC(CC(C4)C2)C3)ccc1F` [Example 213, 5-{[5-(2-Adamantan-1-yl-ethyl)-2-bicyclo[2.2.2]oct-1-yl-1H-imidazole-4-carbonyl]-amino}-2-fluoro-benzoic Acid], the Kb is 75.9 nM. Take `O=C(O)/C=C/c1cccc(NC(=O)c2nc(C3CCCCC3)[nH]c2CCC23CC4CC(CC(C4)C2)C3)c1` [Example 259, trans-3-(3-{[5-(2-Adamantan-1-yl-ethyl)-2-cyclohexyl-1H-imidazole-4-carbonyl]-amino}-phenyl)-acrylic Acid]: the Kb was 70.8 nM. Consider `O=C(NO)c1cccc(NC(=O)c2nc(C3CCCCC3)[nH]c2COC23CC4CC(CC(C4)C2)C3)c1` [Example 286, 5-(Adamantan-1-yloxymethyl)-2-cyclohexyl-1H-imidazole-4-carboxylic Acid (3-hydroxycarbamoyl-phenyl)-amide], for which the Kb was 26.9 nM. Consider `COCC(COC)c1nc(C(=O)Nc2cccc(C(=O)O)c2)c(CCC23CC4CC(CC(C4)C2)C3)[nH]1` [Example 189, 3-{[5-(2-Adamantan-1-yl-ethyl)-2-(2-methoxy-1-methoxymethyl-ethyl)-1H-imidazole-4-carbonyl]-amino}-benzoic Acid], for which the Kb is 61.7 nM.

Regarding `O=C(O)c1cccc(NC(=O)c2nc(C3CCOCC3)[nH]c2COC23CC4CC(CC(C4)C2)C3)c1` [Example 233, 3-{[5-(Adamantan-1-yloxymethyl)-2-(tetrahydro-pyran-4-yl)-1H-imidazole-4-carbonyl]-amino}-benzoic Acid], the Kb was 70.8 nM.

Turning to `O=C(O)c1cccc(NC(=O)c2nc(C3CCCCC3)[nH]c2CCC23CCC(CC2)CC3)c1` [Example 175, 3-{[5-(2-Bicyclo[2.2.2]oct-1-yl-ethyl)-2-cyclohexyl-1H-imidazole-4-carbonyl]-amino}-benzoic Acid], the Kb is 2.95 nM. Same read-out and setting: the result for `O=C(O)CCc1c(F)ccc(NC(=O)c2nc(C3CCCCC3)[nH]c2CCC23CC4CC(CC(C4)C2)C3)c1F` [Example 284, 3-(3-{[5-(2-Adamantan-1-yl-ethyl)-2-cyclohexyl-1H-imidazole-4-carbonyl]-amino}-2,6-difluoro-phenyl)-propionic Acid] reads 97.7 nM; that for `Cn1c(C2CCCCC2)nc(C(=O)Nc2cccc(CC(=O)O)c2)c1CCC12CC3CC(CC(C3)C1)C2` [Example 215, (3-{[5-(2-Adamantan-1-yl-ethyl)-2-cyclohexyl-1-methyl-1H-imidazole-4-carbonyl]-amino}-phenyl)-acetic Acid], 363 nM; that for `N#Cc1ccccc1-c1nc(C(=O)Nc2cccc(C(=O)O)c2)c(COC23CC4CC(CC(C4)C2)C3)[nH]1` [Example 306, 3-{[5-(Adamantan-1-yloxymethyl)-2-(2-cyano-phenyl)-1H-imidazole-4-carbonyl]-amino}-benzoic Acid], 58.9 nM. The same measure, in the same setting: the same measure for `O=C(O)CNC(=O)c1cccc(NC(=O)c2nc(C3CCCCC3)[nH]c2CCC23CC4CC(CC(C4)C2)C3)c1` [Example 263, (3-{[5-(2-Adamantan-1-yl-ethyl)-2-cyclohexyl-1H-imidazole-4-carbonyl]-amino}-benzoylamino)-acetic Acid]: 75.9 nM; for `O=C(O)c1cccc(NC(=O)c2c(COC34CC5CC(CC(C5)C3)C4)nc(C34CCC(CC3)CC4)n2O)c1` [Example 314, 3-{[5-(Adamantan-1-yloxymethyl)-2-bicyclo[2.2.2]oct-1-yl-3-hydroxy-3H-imidazole-4-carbonyl]-amino}-benzoic Acid]: 6.31 nM. Turning to `Cc1cc(C)c(-c2nc(C(=O)Nc3cccc(CC(=O)O)c3)c(CCC34CC5CC(CC(C5)C3)C4)[nH]2)c(C)c1` [Example 157, (3-{[5-(2-Adamantan-1-yl-ethyl)-2-(2,4,6-trimethyl-phenyl)-1H-imidazole-4-carbonyl]-amino}-phenyl)-acetic Acid], the Kb is 219 nM. Consider `C[C@H](NC(=O)c1cccc(NC(=O)c2nc(C3CCCCC3)[nH]c2CCC23CC4CC(CC(C4)C2)C3)c1)C(=O)O` [Example 272, (S)-2-(3-{[5-(2-Adamantan-1-yl-ethyl)-2-cyclohexyl-1H-imidazole-4-carbonyl]-amino}-benzoylamino)-propionic Acid], for which the Kb is 186 nM. As for `O=C(O)c1cccc(NC(=O)c2nc(C3C4CCC3CC4)[nH]c2COC23CC4CC(CC(C4)C2)C3)c1` (centres unmarked) [Example 232, 3-{[5-(Adamantan-1-yloxymethyl)-2-bicyclo[2.2.1]hept-7-yl-1H-imidazole-4-carbonyl]-amino}-benzoic Acid], the Kb was 1.38 nM. Still for that read-out and setting: the result for `O=C(O)c1cccc(NC(=O)c2nc(C3C4CCCC3CCC4)[nH]c2CCC23CC4CC(CC(C4)C2)C3)c1` (centres unmarked) [Example 208, 3-([5-(2-Adamantan-1-yl-ethyl)-2-bicyclo[3.3.1]non-9-yl-1H-imidazole-4-carbonyl]-amino}-benzoic Acid] reads 3.47 nM; that for `O=C(O)CNS(=O)(=O)c1cccc(NC(=O)c2nc(C3CCCCC3)[nH]c2CCC23CC4CC(CC(C4)C2)C3)c1` [Example 262, (3-{[5-(2-Adamantan-1-yl-ethyl)-2-cyclohexyl-1H-imidazole-4-carbonyl]-amino}-benzenesulfonylamino)-acetic Acid], 224 nM; that for `Cc1ccc(NC(=O)c2nc(C3CCCCCCC3)[nH]c2COC23CC4CC(CC(C4)C2)C3)cc1C(=O)O` [Example 298, 5-{[5-(Adamantan-1-yloxymethyl)-2-cyclooctyl-1H-imidazole-4-carbonyl]-amino}-2-methyl-benzoic Acid], 1.95 nM. As for `C[C@@H](NC(=O)c1cccc(NC(=O)c2nc(C3CCCCC3)[nH]c2CCC23CC4CC(CC(C4)C2)C3)c1)C(=O)O` [Example 273, (R)-2-(3-{[5-(2-Adamantan-1-yl-ethyl)-2-cyclohexyl-1H-imidazole-4-carbonyl]-amino}-benzoylamino)-propionic Acid], the Kb was 49 nM.
